Measured values published in patent publication US8999930B2, “Soluble hydrophobic core carrier compositions for delivery of therapeutic agents, methods of making and using the same” (PharmaIN Corporation, priority 2008, dated 2015).
Like-named read-outs stand apart in the source and are kept apart here. Where a SMILES comes first, the peptide text is derived from it. Bridges are numbered along the chain shown (N, C = ends).

Experiment: Binding of load molecules to 20PLPEG555C18 carrier (100 kDa filtration, free load by HPLC, Scatchard plot)
Details: for binding affinity to carrier, in words: strong = Kd less than 100 uM, carrier 20 kDa polylysine, 55% 5 kDa MPEGsuccinate, remainder stearic acid
[1] = Kd to the 20PLPRG555C18, Table 4, read-out: Dissociation Constant (Kd)

Protocol: Load molecules of various concentrations were added to the tubes so that the corresponding weight of load molecules will be between 2 to 30% of the weight of the carrier. To each tube, 25 ul of 10× Phosphate buffered saline was added and the total volume of the solution was made up to 250 ul. The solutions were incubated for 2 hours, followed by filtration through a 100 kDa molecular weight cut-off filter made up of regenerated cellulose (Microcon Ultracell YM-100; Millipore, Bedford, Mass.). The free unbound load molecules in the filtrate were analyzed by reverse phase HPLC using the conditions described above to generate Table 3. The total amount of load molecule loaded or the control is represented by the filtrate of the solution without the carrier. The amount of load molecules bound to the carrier is represented by the difference in the amount of load molecules between the filtrate without the carrier and the filtrate with the carrier. Prior to this analysis, the background filter binding was determined and accounted for whenever significant filter binding was found.

Compound | Kd [1] [µM] | binding affinity to carrier, in words | binding affinity to carrier, in words (listed as VIP) | Kd (33 mg/ml (10 uM) of Carrier, read-out: Kd (Scatchard plot)) [µM] | Kd (Ten mg/ml (30 uM) of Carrier, read-out: Kd (Scatchard plot)) [µM] | Kd (Ten mg/ml (30 uM) of Carrier loaded with various concentration of doxorubicin, read-out: apparent Kd (Scatchard plot)) [µM]
Glucagon Like Peptide 2: Glucagon Like Peptide 2 (GLP-2; 3 kDa), load molecule | < 0.5 | – | – | – | – | –
NCCCC[C@H](NC(=O)[C@@H]1CCCN1C(=O)[C@@H]1CSSC[C@H](NC(=O)CNC(=O)CNC(=O)CN)C(=O)N[C@@H](Cc2ccc(O)cc2)C(=O)N[C@@H](Cc2ccccc2)C(=O)N[C@@H](CCC(N)=O)C(=O)N[C@@H](CC(N)=O)C(=O)N1)C(=O)NCC(N)=O [Terlipressin, reference compound] (H-GGGCYFQNCPKG-NH2; disulfide 4-9) | > 100 | does not bind Terlipressin with strong affinity | – | – | – | –
Islet Amyloid Polypeptide: Islet Amyloid Polypeptide (IAPP or Amylin; 3.6 kDa), load molecule (KCNTATCATQRLANFLVHSSNNFGAILSSTNVGSNTY; Islet amyloid polypeptide; UniProt P10997 34-70, looked up) | < 900 | binds IAPP with strong affinity | – | – | 0.9 | –

More lines, now with the values ahead:

Kd [1] [µM] | binding affinity to carrier, in words | binding affinity to carrier, in words (listed as VIP) | Kd (33 mg/ml (10 uM) of Carrier, read-out: Kd (Scatchard plot)) [µM] | Kd (Ten mg/ml (30 uM) of Carrier, read-out: Kd (Scatchard plot)) [µM] | Kd (Ten mg/ml (30 uM) of Carrier loaded with various concentration of doxorubicin, read-out: apparent Kd (Scatchard plot)) [µM] | Compound
– | high affinity | binds VIP with strong affinity | – | – | – | Vasoactive Intestinal Peptide: Vasoactive Intestinal Peptide (VIP), load molecule
> 100 | does not bind hGH with strong affinity | – | – | – | – | Human Growth Hormone: recombinant human growth hormone (26 kDa), load molecule
< 0.8 | binds Leptin with strong affinity | – | 0.7 | – | – | Leptin: Leptin (16 kDa), load molecule
> 100 | did not bind with strong affinity | – | – | – | 315 | COc1cccc2c1C(=O)c1c(O)c3c(c(O)c1C2=O)C[C@@](O)(C(=O)CO)C[C@@H]3O[C@H]1C[C@H](N)[C@H](O)[C@H](C)O1 [Doxorubicin, reference compound]
